Reference: patent US20260198495A1, “BINARY INSECTICIDE COMPOSITION AND USE THEREOF” (SHENYANG SINOCHEM AGROCHEMICALS R & D CO., LTD., priority 2022, published 2026)

Key:
Type in all cases: in vivo
[1] = test system: adult Bemisia tabaci (Gennadius); assay: Joint toxicity of I-72 + emamectin benzoate, seedling spraying, Example 12, Table 12; settings: Bemisia tabaci; adults, kidney bean seedling spraying, 72 h; A = compound I-72, B = emamectin benzoate; read-out: LC50
Description: Test subject: adult Bemisia tabaci (Gennadius), a sensitive strain reared indoors.
Experimental method: the spraying method was adopted. The kidney bean seedlings cultivated in the greenhouse were selected and evenly sprayed with the pesticide solution in the order from low dosage to high dosage according to the experimental design. After natural air-drying in the shade, a self-made glass cover was put on, and the test insects were introduced, with 20-30 insects for each treatment and 3 replicates. In addition, a blank control was set up. The number of dead and live insects was investigated 72 hours later. The corrected mortality rate was calculated using the Abbott's formula, and the DPS data processing software was used for statistical analysis to calculate the toxicities (LC50 values) of the single test pesticides and the mixtures under the test ratios.
The test conditions, the preparation of the pesticide solution and the evaluation method were the same as those in Example 1.

Aphis craccivora nymphs = assay: Synergism screening (Bliss) of I-72 + pyrethroid insecticides, Example 38, Table 38; settings: Aphis craccivora, single pesticide, broad bean seedling spraying, 48 hours, read-out: Measured mortality rate (%)
Procedure: Test target: Aphis craccivora nymphs, a sensitive strain reared indoors.
(§1) Preparation of the pesticide solution: according to different test requirements, the test samples were accurately weighed respectively with an electronic analytical balance. The technical pesticides were dissolved in acetone, and then diluted with 0.1% Tween 80 water into a series of pesticide solutions with a certain concentration gradient according to the experimental design dosage.
Experimental method: first, broad bean seedlings with uniform and consistent Aphis craccivora were selected, with about 30-40 insects on each seedling. Then, they were evenly sprayed with the pesticide solution in the order from low dosage to high dosage according to the experimental design, with 1.5 mL of the solution for each leaf and 3 replicates for each treatment. In addition, a blank control (CK) was set up.
The treated test materials were placed in an observation room, and the temperature, humidity and illumination of the observation room could be adjusted as needed. The number of dead and alive insects was investigated 48 hours later, and the corrected mortality rate was calculated using the Abbott's formula.
The synergism of the mixture was evaluated by adopting the Bliss method, as in Example 5.

[2] = test system: Liriomyza sativae Blanchard larvae; assay: Joint toxicity of I-72 + cyromazine, Example 55, Table 55; settings: A = compound I-72, B = cyromazine, kidney bean seedling spraying, counted after blank control larvae pupated, read-out: LC50
Procedure: Test target: Liriomyza sativae Blanchard larvae.
as §1
Experimental method: first, kidney bean seedlings with the Liriomyza sativae Blanchard larvae (the larvae had just invaded and formed mines) were selected. Spraying treatments were performed in the order from low dosage to high dosage according to the experimental design, with 3 replicates for each treatment. In addition, a blank control was set up.
The treated test materials were placed in an observation room, and the temperature, humidity and illumination of the observation room could be adjusted as needed. After the larvae in the blank control group pupated, the numbers of dead and live insects were then counted. […] Then, the co-toxicity coefficient of each ratio was calculated using the Sun Y-P method to evaluate the mixing effect (the same as in Example 1).

Question: How did the LC50 [1] turn out when `CN(C(=O)c1ccc2c(c1)OC(F)(F)O2)c1cccc(C(=O)Nc2c(Br)cc(C(F)(C(F)(F)F)C(F)(F)F)cc2OC(F)F)c1F` [Compound I-72] was run?
Answer: 2.97 µg/mL

Question: And the mortality at 0.1 µg/mL (Aphis craccivora nymphs; concentration 0.1 mg/L)?
Answer: 11.9%

Question: And the mortality at 3 µg/mL (Aphis craccivora nymphs; concentration 3 mg/L)?
Answer: 60.6%

Question: And the LC50 [2]?
Answer: 0.501 µg/mL
